Measured values from patent US11213509B2, “Compositions and methods for treating traumatic brain injury” (Ischemix, LLC, priority 2017, dated 2022).

Experiments:
Type in all cases: in vivo
[1] = system: mitochondrial reactive oxygen species generation (mtROS); experiment: Mitochondrial reactive oxygen species generation 24 hours post-CCI, focal TBI model in piglets; settings: p<0.0001 vs placebo
Method: Study Design: A blinded, placebo controlled proof of concept trial of CMX-2043 was conducted in four-week-old piglets (8-10 kg). […] Sixteen piglets (n=16) were designated into three cohorts: 1) Controlled cortical impact (CCI) at the rostral gyrus treated with a bolus of CMX-2043 (n=5), 2) CCI injured animals treated with placebo (n=5) and 3) sham animals (n=6). CMX-2043 treated animals received an intravenous loading bolus of CMX-2043 (13.4 mg/kg) 1 hour post-TBI and a 4.5 mg/kg bolus at 13 hours post-TBI. Subjects were intubated, ventilated and anesthesia maintained on isoflurane (1.0%). Buprenorphine (0.02 mg/kg IM) was administered for analgesia immediately following intubation. Monitors recorded oxygen saturation, heart rate, respiration rate, rectal temperature, and end tidal CO2. […] All piglets were sacrificed between 24-25 hours post-TBI.
Mitochondrial Respiration and ROS Production: Twenty four hours post-CCI the ipsilateral penumbra and mirrored contralateral cortex were harvested. The rate of oxygen consumption was recorded via high-resolution Oroboros Oxygraph-2k™ with a specific Substrate-Uncouple-Inhibitor-Titration Protocol (SUIT). […] Maximal reserve capacity of the electron transfer system (ETSCI+CII) was measured by titrating the protonophore carbonyl cyanide p-(trifluoro-methoxy) phenylhydrazone (FCCP). […]

[2] = Body weight and post-operative observations, rat model of focal TBI (BCCI)
Text: Adult, male, Spague-Dawley rats from Charles River were used. Animals were received at PsychoGenics and assigned unique identification numbers (tails marked). Animals were housed 2 per cage in polycarbonate rat cages equipped with microisolators and acclimated for up to 7 days. All rats were examined, handled, and weighed prior to initiation of the study to assure adequate health and suitability. During the course of the study, 12/12 light/dark cycles were maintained. The room temperature was maintained between 20 and 23° C. with a relative humidity maintained around 50%. Chow and water were provided ad libitum for the duration of the study. Animals were randomly assigned across treatment groups.
BCCI TBI to the medial frontal cortex (MFC) was induced by a cortical contusion device (Custom Design & Fabrication, Inc [CDF], Richmond, Va.). This device creates a reliable contusion injury to the exposed area of the brain with a brass-tipped impounder. (Hoffman et al., 1994). Rats were anesthetized with isoflurane (5%) (Novaplus™), and 02 (300 cm^3/min), and mounted in a stereotaxic frame. […]
(§1) Data are presented as mean±SEM and analyzed by one-way repeated measures Analysis of variance (ANOVA) in order to test the effects of treatment on beam balance times and Morris water maze performance. […]

[3] = system: rat model of focal TBI; experiment: Beam balance test, rat model of focal TBI (BCCI)
Text: BCCI TBI to the medial frontal cortex (MFC) was induced by a cortical contusion device (Custom Design & Fabrication, Inc [CDF], Richmond, Va.). This device creates a reliable contusion injury to the exposed area of the brain with a brass-tipped impounder. (Hoffman et al., 1994). Rats were anesthetized with isoflurane (5%) (Novaplus™), and 02 (300 cm^3/min), and mounted in a stereotaxic frame. Under aseptic conditions, a sagittal incision was made in the scalp and the fascia retracted to expose the cranium. Then, a 6-mm diameter trephine drill was used to open the skull immediately anterior to the bregma. TBI of the MFC was made with a 5-mm-diameter rounded brass impactor attached to a computer-controlled piston propelled electronically with following parameters: velocity=2.5 m/s; depth=3 mm; duration=100 ms). After BCCI, any cortical surface hemorrhaging was controlled and the fascia and scalp sutured. […]
The beam balance test examined vestibulomotor reflex activity of the animals after injury. […] The animal was gently placed on a suspended narrow beam 1.5 cm wide with a rough surface and the duration for which it remained on the beam was measured with a maximum cutoff time of 60 sec. […]
as §1

CC(NC(=O)C(CCC(=O)O)NC(=O)CCCCC1CCSS1)C(=O)O [CMX-2043, N—(R)-lipoyl-glutamylalanine]
Mitochondrial ROS (mtROS) generation ([1]; contralateral): 5.13±1.67 H2O2/(μmol O2/s*mg) | Mitochondrial ROS (mtROS) generation ([1]; ipsilateral): 8.28±1.47 H2O2/(μmol O2/s*mg) | Body weight / weight gain ([2]; 30 mg/kg IV at 30 minutes and about 24 hrs after injury, vs saline): no adverse effects on weight gain | Survival (deaths within 24 hours post-injury) ([2]; 30 mg/kg IV, TBI-injured rats): 9 surviving animals of the 11 animals treated | Treatment efficacy in beam balance motor test ([3]; 30 mg/kg intravenously): not in the beam balance motor test | Beam balance time ([3]; Day 3 following injury, 30 mg/kg IV, all groups): less than 3 seconds
